From ChEMBL document CHEMBL2169775, “Tacrine-ferulic acid-nitric oxide (NO) donor trihybrids as potent, multifunctional acetyl- and butyrylcholinesterase inhibitors” (J Med Chem, 2012) come the findings set out here.

The structures appear in SMILES notation. The source made the active and inactive calls. No cut-off for these calls is given here. Where only a bound is given, the exact number is not on record here.

The target in one data set is Cholinesterase (Equus caballus, UniProt P81908).
In another data set the target is Acetylcholinesterase (Electrophorus electricus, UniProt O42275).
Acetylcholinesterase, sequence (O42275 whole entry): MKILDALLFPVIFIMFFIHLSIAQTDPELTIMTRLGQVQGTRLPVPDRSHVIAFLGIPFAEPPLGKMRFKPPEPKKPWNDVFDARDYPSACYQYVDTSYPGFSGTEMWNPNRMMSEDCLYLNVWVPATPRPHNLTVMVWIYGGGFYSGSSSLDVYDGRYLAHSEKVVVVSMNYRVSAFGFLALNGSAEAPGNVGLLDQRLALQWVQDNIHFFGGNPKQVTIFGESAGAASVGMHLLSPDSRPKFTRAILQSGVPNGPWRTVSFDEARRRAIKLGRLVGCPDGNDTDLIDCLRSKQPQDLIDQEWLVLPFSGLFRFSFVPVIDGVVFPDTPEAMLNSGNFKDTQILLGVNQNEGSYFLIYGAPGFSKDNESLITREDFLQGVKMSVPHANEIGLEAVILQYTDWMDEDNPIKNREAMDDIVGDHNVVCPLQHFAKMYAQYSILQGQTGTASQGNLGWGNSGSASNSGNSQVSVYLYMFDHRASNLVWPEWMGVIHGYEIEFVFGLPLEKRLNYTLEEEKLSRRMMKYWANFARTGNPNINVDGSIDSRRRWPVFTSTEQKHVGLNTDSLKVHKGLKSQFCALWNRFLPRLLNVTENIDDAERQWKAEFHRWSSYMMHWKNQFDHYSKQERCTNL
The subject of data set [1] is Radical scavenging activity. The experiment in a line: Antioxidant activity assessed as DPPH free radical scavenging activity at 2 mM relative to ferulic acid. The class given is functional.
The subject of the next data set is Aorta. The experiment in a line: tissue or blood. The settings on record: Rattus norvegicus.
Data set [2] is described as follows: Induction of NO release in phosphate buffer assessed as inorganic nitrite level at pH 7.4 at 10^-4 M measured at 10 mins by Griess assay in presence of L-cysteine. The class given is physicochemical. The settings on record: pH 7.4, 10 min, 100 µM.
Data set [3] in a line: Induction of NO release in phosphate buffer assessed as inorganic nitrite level at pH 7.4 at 10^-4 M measured at 30 mins by Griess assay in presence of L-cysteine. The settings on record: pH 7.4, 0.5 h, 100 µM. The class given is physicochemical.
Data set [4] has as its target Acetylcholinesterase (Electrophorus electricus) (UniProt O42275). As to the kind of experiment: Mixed inhibition of eel AChE using acetylthiocholine iodide as substrate at 1 to 10 nM after 4 mins by Lineweaver-Burk plot analysis.
In data set [5] the target is Cholinesterase (Equus caballus) (UniProt P81908). The experiment in a line: Competitive inhibition of equine serum BuChE using butyrylthiocholine iodide as substrate at 1 to 10 nM after 4 mins by Ellman's method.
Cholinesterase (Equus caballus), sequence (P81908 whole entry): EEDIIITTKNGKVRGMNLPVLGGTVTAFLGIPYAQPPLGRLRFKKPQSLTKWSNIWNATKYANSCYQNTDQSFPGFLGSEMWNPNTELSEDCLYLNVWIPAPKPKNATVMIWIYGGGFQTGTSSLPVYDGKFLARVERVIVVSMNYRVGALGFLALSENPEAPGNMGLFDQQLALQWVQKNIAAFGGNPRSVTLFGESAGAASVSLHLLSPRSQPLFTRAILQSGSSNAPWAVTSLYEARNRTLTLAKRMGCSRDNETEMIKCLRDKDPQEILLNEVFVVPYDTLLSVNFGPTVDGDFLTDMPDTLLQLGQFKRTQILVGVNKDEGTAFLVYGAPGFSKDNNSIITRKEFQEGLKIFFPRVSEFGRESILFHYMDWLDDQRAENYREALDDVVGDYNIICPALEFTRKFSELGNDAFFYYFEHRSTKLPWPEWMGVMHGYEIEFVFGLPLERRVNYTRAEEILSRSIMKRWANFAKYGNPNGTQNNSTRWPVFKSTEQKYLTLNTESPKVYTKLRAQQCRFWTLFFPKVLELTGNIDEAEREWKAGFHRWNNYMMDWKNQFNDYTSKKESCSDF

Cholinesterase, sequence (P81908 whole entry): as above
Acetylcholinesterase (Electrophorus electricus), sequence (O42275 24-633 limits assumed): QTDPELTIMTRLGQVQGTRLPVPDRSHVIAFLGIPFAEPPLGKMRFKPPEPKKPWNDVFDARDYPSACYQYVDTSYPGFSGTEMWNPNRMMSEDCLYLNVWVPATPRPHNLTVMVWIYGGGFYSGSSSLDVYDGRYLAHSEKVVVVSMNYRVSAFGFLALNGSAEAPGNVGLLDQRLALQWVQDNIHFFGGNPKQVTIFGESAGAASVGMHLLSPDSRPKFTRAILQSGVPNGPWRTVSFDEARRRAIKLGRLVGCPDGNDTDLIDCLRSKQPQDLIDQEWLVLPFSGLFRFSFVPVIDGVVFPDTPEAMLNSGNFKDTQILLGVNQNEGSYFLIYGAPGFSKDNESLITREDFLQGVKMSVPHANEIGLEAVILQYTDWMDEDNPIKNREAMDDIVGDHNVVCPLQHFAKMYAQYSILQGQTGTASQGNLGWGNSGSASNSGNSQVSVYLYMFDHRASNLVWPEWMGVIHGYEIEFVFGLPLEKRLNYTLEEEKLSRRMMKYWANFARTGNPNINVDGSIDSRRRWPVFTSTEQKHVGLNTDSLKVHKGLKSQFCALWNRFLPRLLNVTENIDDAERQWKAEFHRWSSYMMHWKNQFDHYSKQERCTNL
Description for Aorta: Vasorelaxant activity in rat aortic rings assessed as reduction of norepinephrine-induced contraction

With `COc1cc(/C=C/C(=O)NCCCNc2c3c(nc4ccccc24)CCCC3)ccc1OCCCCCCO[N+](=O)[O-]`, the IC50 against Cholinesterase is 0.0193 µM; against Acetylcholinesterase it was 0.0218 µM. In addition, the Activity in data set [1] is below 1%.
Consider `COc1cc(/C=C/C(=O)NCCCCCCCCNc2c3c(nc4ccccc24)CCCC3)ccc1OCCCO[N+](=O)[O-]`, for which the IC50 stood at 0.001 µM against Cholinesterase and 0.0101 µM on Acetylcholinesterase. Moreover, in data set [1], the Activity is below 1%.
As for `COc1cc(/C=C/C(=O)NCCCNc2c3c(nc4ccccc24)CCCC3)ccc1O`, the half-maximal inhibitory concentration (IC50) against Cholinesterase worked out at 0.0311 µM; against Acetylcholinesterase, 0.0567 µM. Besides, in the data set on Aorta, the midpoint of the response, the EC50, lay at 2050 µM.
As for `COc1cc(/C=C/C(=O)NCCCCCCCCNc2c3c(nc4ccccc24)CCCC3)ccc1OCCCCO[N+](=O)[O-]`, the IC50 against Cholinesterase came out at 0.0018 µM; at Acetylcholinesterase, 0.0094 µM. In addition, the Activity in data set [1] was below 1%.
For the compound `COc1cc(/C=C/C(=O)NCCCCCCNc2c3c(nc4ccccc24)CCCC3)ccc1OCCO[N+](=O)[O-]`, the IC50 was 0.0052 µM at Cholinesterase and 0.0083 µM on Acetylcholinesterase. In addition, the Activity in data set [1] is below 1%.
On to `COc1cc(/C=C/C(=O)O)ccc1OCCCCO[N+](=O)[O-]`, for which the IC50 against Cholinesterase and at Acetylcholinesterase was above 10 µM throughout.
Consider `COc1cc(/C=C/C(=O)NCCCCCCNc2c3c(nc4ccccc24)CCCC3)ccc1O`, for which the IC50 against Cholinesterase worked out at 0.0263 µM; on Acetylcholinesterase, 0.0127 µM. Further, the Activity in data set [1] amounted to 64.7%.
`NCCNc1c2c(nc3ccccc13)CCCC2`: the IC50 amounted to 0.0309 µM on Cholinesterase and 0.0714 µM on Acetylcholinesterase.
Consider `COc1cc(/C=C/C(=O)NCCNc2c3c(nc4ccccc24)CCCC3)ccc1OCCCCO[N+](=O)[O-]`, for which the IC50 was 0.0076 µM against Cholinesterase and 0.0271 µM against Acetylcholinesterase. Besides, the Activity in data set [1] was below 1%.
For the compound `NCCCCCCNc1c2c(nc3ccccc13)CCCC2`, the IC50 was 0.0066 µM against Cholinesterase and 0.0237 µM at Acetylcholinesterase.
Take `COc1cc(/C=C/C(=O)O)ccc1OCCCCCCO[N+](=O)[O-]`: the IC50 on Cholinesterase and on Acetylcholinesterase was above 10 µM throughout.
With `COc1cc(/C=C/C(=O)NCCCCNc2c3c(nc4ccccc24)CCCC3)ccc1O`, the IC50 worked out at 0.0098 µM against Cholinesterase and 0.0111 µM on Acetylcholinesterase.
For the compound `COc1cc(/C=C/C(=O)NCCCCNc2c3c(nc4ccccc24)CCCC3)ccc1OCCCCCCO[N+](=O)[O-]`, the IC50 against Cholinesterase worked out at 0.0117 µM; on Acetylcholinesterase, 0.0279 µM. The Activity in data set [1] is below 1%.
In the case of `COc1cc(/C=C/C(=O)NCCCCNc2c3c(nc4ccccc24)CCCC3)ccc1OCCCCO[N+](=O)[O-]`, the values for the IC50 on Cholinesterase and against Acetylcholinesterase were 0.0047 µM and 0.0195 µM, respectively. For the same compound, the Activity in data set [1] is below 1%.
`COc1cc(/C=C/C(=O)NCCNc2c3c(nc4ccccc24)CCCC3)ccc1OCCCO[N+](=O)[O-]`: the IC50 at Cholinesterase came to 0.0084 µM; on Acetylcholinesterase, 0.0199 µM. The Activity in data set [1] was below 1%.
The corresponding values for `COc1cc(/C=C/C(=O)NCCCCNc2c3c(nc4ccccc24)CCCC3)ccc1OCCCO[N+](=O)[O-]` are 0.0236 µM, 0.0443 µM and below 1%.
Turning to `COc1cc(/C=C/C(=O)NCCCCCCCCNc2c3c(nc4ccccc24)CCCC3)ccc1OCCO[N+](=O)[O-]`, the IC50 against Cholinesterase was found to be 0.0016 µM; against Acetylcholinesterase it was 0.0055 µM. This compound also came in with an EC50 in the data set on Aorta of 234 µM. Also, the figures for the Activity in data set [2], in data set [3] and in data set [1] were 0.145 µg/mL, 0.275 µg/mL and below 1%, respectively.
On to `NCCCCCCCCNc1c2c(nc3ccccc13)CCCC2`, for which the IC50 against Cholinesterase amounted to 0.0028 µM; at Acetylcholinesterase, 0.0029 µM.
For the compound `COc1cc(/C=C/C(=O)NCCNc2c3c(nc4ccccc24)CCCC3)ccc1O`, the IC50 was determined as 0.0375 µM against Cholinesterase and 0.062 µM against Acetylcholinesterase.
As for `COc1cc(/C=C/C(=O)NCCCNc2c3c(nc4ccccc24)CCCC3)ccc1OCCCCO[N+](=O)[O-]`, the IC50 against Cholinesterase worked out at 0.0062 µM; on Acetylcholinesterase, 0.0036 µM. Also, the Activity in data set [1] is below 1%.
In the case of `COc1cc(/C=C/C(=O)O)ccc1OCCCO[N+](=O)[O-]`, the half-maximal inhibitory concentration (IC50) against Cholinesterase and against Acetylcholinesterase was above 10 µM throughout.
On to `COc1cc(/C=C/C(=O)NCCCCCCNc2c3c(nc4ccccc24)CCCC3)ccc1OCCCCCCO[N+](=O)[O-]`, for which the results for the IC50 against Cholinesterase and on Acetylcholinesterase were 0.002 µM and 0.0048 µM, respectively. The Activity in data set [1] is below 1%.
The corresponding values for `COc1cc(/C=C/C(=O)NCCCCCCNc2c3c(nc4ccccc24)CCCC3)ccc1OCCCCO[N+](=O)[O-]` are 0.0014 µM, 0.0037 µM and below 1%.
For `COc1cc(/C=C/C(=O)O)ccc1OCCO[N+](=O)[O-]`, the IC50 on Cholinesterase and against Acetylcholinesterase was above 10 µM in each case.
On to `COc1cc(/C=C/C(=O)NCCCCNc2c3c(nc4ccccc24)CCCC3)ccc1OCCO[N+](=O)[O-]`, for which the figures for the IC50 at Cholinesterase and at Acetylcholinesterase were 0.0202 µM and 0.0221 µM, respectively. In addition, in data set [1], the Activity is below 1%.
As for `COc1cc(/C=C/C(=O)NCCCCCCCCNc2c3c(nc4ccccc24)CCCC3)ccc1O`, the IC50 was 0.0274 µM at Cholinesterase and 0.0169 µM at Acetylcholinesterase.
For `COc1cc(/C=C/C(=O)NCCCCCCCCNc2c3c(nc4ccccc24)CCCC3)ccc1OCCCCCCO[N+](=O)[O-]`, the IC50 against Cholinesterase was 0.0019 µM; against Acetylcholinesterase, 0.0108 µM. The Activity in data set [1] is below 1%.
In the case of `NCCCCNc1c2c(nc3ccccc13)CCCC2`, the figures for the IC50 against Cholinesterase and against Acetylcholinesterase were 0.0229 µM and 0.0393 µM, respectively.
Consider `COc1cc(/C=C/C(=O)NCCCCCCNc2c3c(nc4ccccc24)CCCC3)ccc1OCCCO[N+](=O)[O-]`, for which the IC50 on Cholinesterase was 0.0056 µM; on Acetylcholinesterase, 0.0044 µM. Besides, in data set [1], the Activity is below 1%.
For `COc1cc(/C=C/C(=O)NCCNc2c3c(nc4ccccc24)CCCC3)ccc1OCCO[N+](=O)[O-]`, the IC50 at Cholinesterase is 0.0105 µM; against Acetylcholinesterase, 0.0172 µM. In the data set on Aorta, the response was half-maximal at 48.8 µM (EC50). Besides, the Activity in data set [1] is below 1%.
Regarding `COc1cc(/C=C/C(=O)NCCNc2c3c(nc4ccccc24)CCCC3)ccc1OCCCCCCO[N+](=O)[O-]`, the IC50 against Cholinesterase came to 0.0218 µM; at Acetylcholinesterase, 0.0406 µM. The Activity in data set [1] was below 1%.
The like results for `COc1cc(/C=C/C(=O)NCCCNc2c3c(nc4ccccc24)CCCC3)ccc1OCCO[N+](=O)[O-]` were, in that order, 0.0249 µM, 0.0144 µM and below 1%.
Take `CCCOc1ccc(/C=C/C(=O)NCCCNc2c3c(nc4ccccc24)CCCC3)cc1OC`: the IC50 was found to be 0.0403 µM on Cholinesterase and 0.0698 µM on Acetylcholinesterase. The compound further showed an EC50 in the data set with Aorta of 838 µM.
In the case of `COc1cc(/C=C/C(=O)NCCCNc2c3c(nc4ccccc24)CCCC3)ccc1OCCCO[N+](=O)[O-]`, the IC50 against Cholinesterase was 0.0177 µM; against Acetylcholinesterase, 0.0109 µM. In the data set with Aorta, this compound returned an EC50 of 34.3 µM. Also, the inhibition entry in data set [4] and in data set [5] was “Active” throughout. For the same compound, the Activity is 0.241 µg/mL in data set [2], 0.305 µg/mL in data set [3] and below 1% in data set [1].
For the compound `NCCCNc1c2c(nc3ccccc13)CCCC2`, the IC50 on Cholinesterase was determined as 0.0197 µM; on Acetylcholinesterase it was 0.0795 µM.
Compound `O=[N+]([O-])O[C@H]1CO[C@H]2[C@@H]1OC[C@H]2O[N+](=O)[O-]` [ISOSORBIDE DINITRATE] came in with an EC50 in the data set with Aorta of 25.2 µM.
